Reference: US20230042929A1, “Methods of Screening to Determine Effective Dosing of Cancer Therapeutics” (Kiyatec, Inc., priority 2019, published 2023)
Like-named read-outs stand apart in the source and are kept apart here.

What was measured:
[1] = tested on: recurrent platinum-resistant OC; details: patients with recurrent platinum-resistant OC; cited from earlier work
[2] = tested on: OVC45 and OVC33 ovarian cancer patient derived 3D spheroids; assay: 3D spheroid drug response assay (CellTiter-Glo 3D, imaging); type: cell-based, human
Method: Live OC tissue was received within 24 hours of surgery and dissociated to single cells via mechanical and enzymatic digestion. Cells were then cryopreserved until ready for use. 3D spheroids were generated as previously described. Briefly, cells were seeded in KIYA-PREDICT™ media (KIYATEC, Inc., South Carolina, USA) in 384-well round bottom, ultra-low attachment plates (Corning Inc., New York, USA) and centrifuged at 500×g for five minutes then placed in a 37° C. incubator at 5% CO2.
Given the prevalence of drug resistance and altered drug penetration for 3D cultures, drug concentrations for single dose experiments were in the micromolar or microgram per milliliter range for testing. […] Viability was determined 48 hours later. For durvalumab (Selleckchem, Texas, USA) and olaparib combination studies, spheroids were treated with olaparib for 48 hours, followed by durvalumab for an additional 72 hours. […] T-cells were then added to the bulk cells and seeded for 3D spheroid culture. Viability was determined 48 hours later. Viability read outs were conducted using CellTiter-Glo® 3D Cell Viability Assay (Promega, Wisconsin, USA) and relative luminescence units (RLUs) were recorded using a TECAN infinite M1000pro (Mannedorf, Switzerland).
Statistical analysis was performed using GraphPad Prism software version 8.2.1. Results are expressed as the mean±standard deviation (SD). Unpaired t tests were used to determine significance between two groups. Unpaired One-way ANOVA with multiple comparisons was used to determine significance across three or more groups. Combenefit software generated concentration responses and Loewe synergy indices from calculated percent viability normalized to vehicle control.

[3] = cited from earlier work; for half-life: in vivo
[4] = tested on: melanoma cell line with tumor infiltrating lymphocytes; assay: Image based assay of tumor and T-cell interactions in 3D spheroids; details: 1:3 E:T, up to 72 hours, drug alone
Method: Referring to FIGS. 25A-H, a summary of an image-based assay for measuring tumor and T-cell interactions for I/O applications is shown. FIG. 25(A) illustrates representative images of a melanoma cell line (Green) and tumor infiltrating lymphocytes (Red) at a 1:3 Effector:Target cell ratio (E:T) cultured as 3D spheroids at 72 hours, Scale bar=200 μm. Groups were treated with immunomodulators (Activator=CD3/CD28 antibody, Durva=Durvalumab) and analyzed every 24 hours for 72 hours (FIGS. 25F-25H). Total red or green fluorescence was measured for T-cells (FIGS. 25B and 25C) and tumor cells (FIG. 25F) using an algorithm developed in Celleste Image Analysis software. Imaging based metrics were compared to conventional methods for assessing cell viability, CellTiter-Glo® (FIGS. 25D and 25G) and flow cytometry (FIGS. 25E and 25H). An increase in T-cell viability in all treatment groups was observed compared to no treatment when cultured with tumor cells (D). Total green fluorescence signal (F) was an acceptable indicator of T-cell induced cytotoxicity when compared to CellTiter-Glo® (FIG. 25G). The use of flow cytometry as a metric for T-cell induced cytotoxicity appears to not be as sensitive at earlier timepoints (24 hrs) as at later timepoints (72 hours). […] Two-Way ANOVA, error bars reflect SD. *p<0.05, **p<0.01, ***p<0.001.

GEN26 tumor spheroids = assay: Tumor spheroid death assay (CellTiter-Glo 3D); type: cell-based, human; details: 24 hours
Method: Tumor spheroid death assay. […] After a 1 hour incubation at 37 C 5% CO2, plates were centrifuged for 5 minutes at 500×g. Tumor spheroids were allowed to form overnight. After 24 or 72 hours, CellTiter-Glo® 3D Cell Viability Assay (Promega G9683) was used according to manufacturer's recommendations and relative luminescence units (RLUs) were recorded using a TEGAN infinite M1000pro (Mannedorf, Switzerland). RLUs were graphed using GraphPad Prism.

[5] = tested on: melanoma microtumors co-cultured with stacked T cell compartment; assay: Microtumor viability assay (PrestoBlue growth rate); type: cell-based, human
Method: PrestoBlue viability assays. PrestoBlue™ Cell Viability Reagent (Invitrogen A13262) was diluted 1:10 in EV3D media. Each T cell scaffold or microtumor was placed in 250 μl of diluted PrestoBlue reagent in a 96-well plate and allowed to incubate for 2 hours at 37° C. 5% CO2. Scaffolds and microtumors were then placed in fresh media and duplicates of 100 μl per PrestoBlue sample was pipetted into a black walled 96-well plate and read on a TECAN infinite M1000pro (Mannedorf, Switzerland) at an excitation of 560 nm and an emission 590 nm with a gain of 60. Absorbance measurements from scaffolds with no cells were subtracted from each sample and relative fluorescent units (RFU) were graphed using GraphPad Prism.
Microtumor viability assay. T cells and tumor cells were seeded in EV3D media and Matrigel (Corning 356234) with collagen (Corning 354236) in scaffolds. […] Scaffolds were incubated for 1 hour at 37° C. and 5% CO2 then 200 μl of EV3D media was added to each scaffold. After an additional hour, T cell scaffolds were placed on top of tumor cell scaffolds (microtumors) or microtumors were cultured in the absence of a stacked T cell scaffold. Media was changed every one to two days. Supernatant from day seven was collected and stored at −80° C. for analyte analysis. Viability was determined for T cell scaffolds and microtumors after 24 hours (day one) and at day seven using PrestoBlue™ Cell Viability Reagent (Invitrogen A13262). PrestoBlue absorbance readings (RFUs) for day one were subtracted from day seven to determine microtumor growth rates.

[6] = tested on: GM-CSF, IFNγ, Granzyme B, MIP-1α, MIP-1β, TNFα secretion; assay: Detection of analyte secretion in microtumor model (Milliplex); type: cell-based, human
Method: Detection of Analyte Secretion. Individual beads (GM-CSF, IFNγ, Granzyme B, MIP-1α, MIP-1β, TNFα) were purchased from the Milliplex™ MAP Human CD8+ T cell Magnetic Bead Panel 96-well Plate Assay (EMO Millipore HCD8MAG-15K). Supernatant was collected at day seven of microtumor viability assays and stored at −80° C. Samples were processed according to manufacturer's recommendations and the assay plate was run on the BIORAD Luminex® BioPLEX200™ System (Hercules, Calif.). Analyte concentration was determined by interpolation of assay standards using GraphPad Prism.

[7] = tested on: CD3+ T cells infiltrating matched melanoma microtumors; assay: Detection of T cell infiltration in microtumor model; type: cell-based, human
Method: Detection of T cell infiltration. T cells were stained with the fluorescent stain PKH (Sigma PKH26GL-1KT) according to manufacturer's recommendations. On the same day, T cells and tumor cells were seeded in EV3D media and Matrigel (Corning 356234) in scaffolds. Scaffolds were incubated for 1 hour at 37° C. and 5% CO2 then 200 μl of EV3D media was added to each scaffold well. After an additional hour, T cell scaffolds were placed on top of tumor cell scaffolds (microtumors). Media was changed every one or two days. Viability was determined for T cell scaffolds and microtumors after one week using PrestoBlue™ Cell Viability Reagent (Invitrogen A13262). Microtumors were washed in PBS, then harvested using Liberase DH (Sigma LIBDH− RO) in serum-free media while rotating at 37° C. 5% CO2. Harvested cells were then analyzed for PKH (PE channel), and CD3 using flow cytometry. Unstained T cells were used to define PKH+ gates.

[8] = tested on: T cells stimulated with matched melanoma tumor spheroids; assay: Tumor spheroid assay to assess T cell responses (flow cytometry); type: cell-based, human
Method: Tumor spheroid assay to assess T cell responses. Expanded T cells were cultured in the absence of activation components (EV3D media) for 72 hours prior to tumor spheroid assay. […] After a 1 hour incubation, plates were centrifuged for 5 minutes at 500×g. Patient samples were then cultured for 24 hours, and wells were then harvested for flow cytometric analysis.
Flow cytometry. Cells were harvested from 384-well plates following tumor spheroid assays or dissociated from scaffolds and resuspended in 100 μl FACS buffer (2% FBS, 2 mM EDTA, 0.05% sodium azide in PBS). […] Samples were then analyzed using the CytoFLEX LX flow cytometer and software (Beckman Coulter, Brea, Calif.). Percent of parent was then graphed and evaluated for statistics using GraphPad Prism.

NC(=O)c1cccc2cn(-c3ccc([C@@H]4CCCNC4)cc3)nc12 [niraparib]
complete or partial responses, share of patients [1]: < 5%

O=C(c1cc(Cc2n[nH]c(=O)c3ccccc23)ccc1F)N1CCN(C(=O)C2CC2)CC1 [olaparib]
spheroid appearance ([2]; OVC33, 48 hours, images): less dense with less cell contact | spheroid viability, relative sensitivity of samples ([2]; olaparib alone, 50 μM (OVC33) or 100 μM (OVC45), 48 hours): OVC33 was more sensitive to olaparib alone compared to OVC45 | spheroid viability, relative sensitivity of samples ([2]; single agent olaparib dose-response, sequential dosing study): OVC33 remained more sensitive to single agent olaparib than OVC45

durvalumab
half-life ([3]; human): high | predicted achievable serum concentration levels ([3]; twice weekly intravenous dosing regimen): greater than 10 μg/mL | spheroid viability ([2]; durvalumab alone, dose-response, OVC45 and OVC33): did not result in a dose-dependent reduction in spheroid viability | T-cell induced cytotoxicity [4]: did not cause significant T-cell induced cytotoxicity

pembrolizumab
tumor spheroid viability (GEN26 tumor spheroids; GEN26 tumor spheroids alone, 100 μg/ml, vs no treatment): slight decrease in viability | tumor spheroid viability (GEN26 tumor spheroids; GEN26 tumor spheroids co-cultured with T cells, ratio 1:5, 100 μg/ml): greatest reduction in tumor spheroid viability | half-life [3]: approximately 27 days | predicted maximum serum concentration ([3]; intravenous 10 mg/kg once every two weeks, advanced solid tumor cancer patients): approximately 200 μg/mL | microtumor growth rate ([5]; GEN19 and GEN26, 100 μg/ml, day 1 to day 7, vs untreated): reduced microtumor growth rates compared to untreated | microtumor growth rate ([5]; GEN20 or GEN21, 100 μg/ml, day 1 to day 7, vs no treatment): did not detect a difference in microtumor growth rates | overall microtumor viability ([5]; GEN26, 100 μg/ml, vs untreated microtumors): reduction in overall microtumor viability | PrestoBlue RFU readings ([5]; day one to day seven, GEN19, GEN26, GEN20, GEN21): altered the RFU readings over the 7 day period for GEN19 and GEN26 more significantly than GEN20 and GEN21 | spheroid viability ([2]; OVC33, T-cells incubated with 300 μg/mL pembrolizumab before 3D incorporation, 48 hours): significant reduction in spheroid viability | spheroid viability ([2]; OVC45 and OVC33, 100 μg/mL pembrolizumab alone, 48 hours): decrease in spheroid viability with pembrolizumab treatment alone was not detected for both samples | granzyme B secretion ([6]; GEN19, day 7, 100 μg/ml): greatest increase | analyte secretion ([6]; GEN19 and GEN26, day 7, 100 μg/ml, vs no treatment): increase in nearly all analytes tested | analyte secretion ([6]; GEN20, day 7, 100 μg/ml): reduction of all tested analytes | analyte secretion ([6]; GEN21, day 7, 100 μg/ml): increase in GM-CSF and moderate or no change for other tested analytes | infiltration of CD3+ T cells ([7]; GEN19 and GEN20, with vs without treatment): decrease was observed | infiltration of CD3+ T cells ([7]; GEN21 and GEN26, with vs without treatment): increase in infiltration of CD3+ T cells | CD3+/PD-1−/CD69+ population (T cell activation) ([8]; GEN25, data not shown): did not display an increase | CD3+/PD-1−/CD69+ levels (T cell activation) ([8]; three patients (GEN19, GEN21, GEN26), tumor spheroids + 100 μg/ml pembrolizumab vs T cells with or without spheroids): significant increase
